Test results from patent US9926275B2 (priority 2013, dated 2018).
Where two headings read alike, the source gives them in different places.

Experiments:
[1] = biological target: T1, CB1 receptor (Homo sapiens, UniProt P21554); assay: DiscoveRx HitHunter cAMP XS+ assay in cAMP Hunter cell line, allosteric modulation of CP55,940 response; assay type: cell-based
Method: Once it was established that the cells were healthy and growing normally, cells were passaged from flasks using cell dissociation reagent buffer and seeded into white walled clear bottom 384-well microplates for compound profiling. For profiling, cells were seeded at a density of 10000 cells per well in a total volume of 20 μL and were allowed to adhere and recover overnight prior to compound addition. Cells were treated the following day using the protocols shown below. cAMP modulation was determined using the DiscoveRx HitHunter cAMP XS+ assay.
Media was aspirated from cells and replaced with 10 μL 1:1 HBSS/Hepes: cAMP XS+ Ab reagent. Agonist (CP55,940) dose curves were performed to determine the EC20 value for the testing with the compounds of the present technology. 5 μL of 4× agonist was added to each well with an equal concentration of vehicle present. EC20 agonist concentration was determined directly from agonist dose curve.
(§1) For allosteric determination, cells were preincubated with compound followed by agonist challenge at the EC20 concentration of the agonist. 5 μL of 4× compound was added to cells and incubated at 37° C. for 30 minutes. 5 μL of 4× EC20 agonist was added to cells and incubated at 37° C. for 30 minutes.
Signal Detection: After appropriate compound incubation, assay signal was generated through incubation with 20 μL cAMP XS+ED/CL lysis cocktail for one hour followed by incubation with 20 μL cAMP XS+EA reagent for three hours at room temperature. Microplates were read following signal generation with a PerkinElmer Envision™ instrument for chemiluminescent signal detection.
(§2) Data Analysis: Dose curves were plotted using GraphPad Prism or Activity Base. The percentage activity is calculated using the following formula: % Activity=100%×(1−(mean RLU of test sample−mean RLU of MAX control)/(mean RLU of vehicle control [EC20 for PAM]−mean RLU of MAXcontrol).
(§3) Agonist (CP55,940) dose curves were performed for the CNR1 PathHunter and cAMP Hunter cell lines. […] The cAMP assay was performed in the presence of 20 μM forskolin (EC80).
(§4) In Vitro Evaluation: The in vitro evaluation of the covalent allosteric modulators was performed using as described previously.

[2] = biological target: T1, CB1 receptor; assay: β-arrestin recruitment in CNR1 PathHunter cell line, allosteric modulation of CP55,940 response; assay type: cell-based
Method: as §1, §2, §3, §4

[3] = Table 1, preincubation with compound, then CP55,940 challenge, 20 μM forskolin
[4] = Table 1, preincubation with compound, then CP55,940 challenge, 20 μM forskolin, read-out: cAMP EC50
[5] = Table 1, CP55,940 as agonist, read-out: β-arrestin EC50

T1 sequence (P21554 whole entry): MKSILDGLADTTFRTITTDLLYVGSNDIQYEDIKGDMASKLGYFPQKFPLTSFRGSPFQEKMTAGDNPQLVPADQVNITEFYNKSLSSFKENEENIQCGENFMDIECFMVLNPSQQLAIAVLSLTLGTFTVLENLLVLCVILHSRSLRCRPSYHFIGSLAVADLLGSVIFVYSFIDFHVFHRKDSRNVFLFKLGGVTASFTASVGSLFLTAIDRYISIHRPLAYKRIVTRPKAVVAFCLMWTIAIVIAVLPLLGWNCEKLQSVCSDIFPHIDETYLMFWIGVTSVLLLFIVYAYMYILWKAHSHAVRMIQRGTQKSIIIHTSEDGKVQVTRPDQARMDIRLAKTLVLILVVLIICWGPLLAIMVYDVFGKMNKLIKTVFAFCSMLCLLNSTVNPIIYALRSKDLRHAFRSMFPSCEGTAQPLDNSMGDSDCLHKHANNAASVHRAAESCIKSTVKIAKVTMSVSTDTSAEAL

| Compound | cAMP % inhibition [1, 3] [%] | EC50 [1, 4] [nM] | β-arrestin % inhibition ([2]; Table 1, CP55,940 as agonist) [%] | EC50 [2, 5] [nM] | cAMP % inhibition [1] [%] | EC50 ([1]; cAMP EC50 nM) [nM] | β-arrestin % inhibition [2] [%] | EC50 ([2]; β-arrestin EC50 nM) [nM] | EC50 ([1]; read-out: cAMP EC50) [nM] |
| --- | --- | --- | --- | --- | --- | --- | --- | --- | --- |
| O=C(Nc1cccc(-c2cccc(N3CCCC3)n2)c1)Nc1ccccc1Oc1ccccc1 [Compound 10m, 1-(2-Phenoxyphenyl)-3-(3-(6-(pyrrolidin-1-yl)pyridin-2-yl)phenyl)urea] | 18 | > 10000 | 80 | 795 | – | – | – | – | – |
| Cc1ccc(NC(=O)Nc2cccc(-c3cccc(N4CCCC4)n3)c2)cc1 [Compound 10n, 1-(3-(6-(Pyrrolidin-1-yl)pyridin-2-yl)phenyl)-3-(p-tolyl)urea] | – | – | – | – | 122 | 764 | 127 | 119 | – |
| Cc1cccc(NC(=O)Nc2cccc(-c3cccc(N4CCCC4)n3)c2)c1 [Compound 10o, 1-(3-(6-(Pyrrolidin-1-yl)pyridin-2-yl)phenyl)-3-(m-tolyl)urea] | 65 | 483 | 125 | 734 | – | – | – | – | – |
| Cc1ccccc1NC(=O)Nc1cccc(-c2cccc(N3CCCC3)n2)c1 [Compound 10p, 1-(3-(6-(Pyrrolidin-1-yl)pyridin-2-yl)phenyl)-3-(o-tolyl)urea] | 97 | 1700 | 104 | 361 | – | – | – | – | – |
| O=C(Nc1ccccc1)Nc1cccc(-c2cccc(N3CCCC3)n2)c1 [Compound 10q, 1-Phenyl-3-(3-(6-(pyrrolidin-1-yl)pyridin-2-yl)phenyl)urea] | – | 501 | 135 | 110 | – | – | – | – | – |
| CCc1ccccc1NC(=O)Nc1cccc(-c2cccc(N3CCCC3)n2)c1 [Compound 10r, 1-(2-Ethylphenyl)-3-(3-(6-(pyrrolidin-1-yl)pyridin-2-yl)phenyl)urea] | 42 | 1190 ± 120 | 76 | 3320 | – | – | – | – | – |
| Cc1cc(Cl)ccc1NC(=O)Nc1cccc(-c2cccc(N3CCCC3)n2)c1 [Compound 10s, 1-(4-Chloro-2-methylphenyl)-3-(3-(6-(pyrrolidin-1-yl)pyridin-2-yl)phenyl)urea] | 18 | > 10000 | 109 | 209 | – | – | – | – | – |
| O=C(Nc1ccc(F)cc1)Nc1cccc(-c2cccc(N3CCCC3)n2)c1 [Compound 10t, 1-(4-Fluorophenyl)-3-(3-(6-(pyrrolidin-1-yl)pyridin-2-yl)phenyl)urea] | 119 | 148 | 108 | 7 | – | – | – | – | – |
| O=C(Nc1cccc(-c2cccc(N3CCCC3)n2)c1)Nc1ccccc1F [Compound 10u, 1-(2-Fluorophenyl)-3-(3-(6-(pyrrolidin-1-yl)pyridin-2-yl)phenyl)urea] | 79 | 330 | 107 | 99 | – | – | – | – | – |
| CC(C)c1ccccc1NC(=O)Nc1cccc(-c2cccc(N3CCCC3)n2)c1 [Compound 10v, 1-(2-Isopropylphenyl)-3-(3-(6-(pyrrolidin-1-yl)pyridin-2-yl)phenyl)urea] | – | – | – | – | 70 | 4810 | 66 | 4200 | – |
| O=C(Nc1cccc(-c2cccc(N3CCCC3)n2)c1)Nc1cccc2ccccc12 [Compound 10w, 1-(Naphthalen-1-yl)-3-(3-(6-(pyrrolidin-1-yl)pyridin-2-yl)phenyl)urea] | 69 | 1260 ± 125 | 109 | 1270 | – | – | – | – | – |
| O=C(Nc1cccc(-c2cccc(N3CCCC3)n2)c1)Nc1ccc2ccccc2c1 [Compound 10x, 1-(Naphthalen-2-yl)-3-(3-(6-(pyrrolidin-1-yl)pyridin-2-yl)phenyl)urea] | 68 | 1830 | 119 | 1910 | – | – | – | – | – |
| O=C(Nc1cccc(-c2cccc(N3CCCC3)n2)c1)N1CCc2ccccc2C1 [Compound 10y, N-(3-(6-(Pyrrolidin-1-yl)pyridin-2-yl)phenyl)-3,4-dihydroisoquinoline-2(1H)-carboxamide] | 2.55 | – | 50 | 5340 | – | – | – | – | > 10000 |
| O=C(Nc1cccc(-c2cccc(N3CCCC3)n2)c1)NC1CCCCC1 [Compound 10z, 1-Cyclohexyl-3-(3-(6-(pyrrolidin-1-yl)pyridin-2-yl)phenyl)urea] | 78 | 659 | 136 | 333 ± 30 | – | – | – | – | – |
| CN(C(=O)Nc1cccc(-c2cccc(N3CCCC3)n2)c1)c1ccc(Cl)cc1 [Compound 13a, 1-(4-Chlorophenyl)-1-methyl-3-(3-(6-(pyrrolidin-1-yl)pyridin-2-yl)phenyl)urea] | 17 | 1640 | 99 | 1020 | – | – | – | – | – |
| O=C(Nc1cccc(-c2cccc(N3CCCC3)n2)c1)Oc1ccc(Cl)cc1 [Compound 13b, 4-Chlorophenyl (3-(6-(pyrrolidin-1-yl)pyridin-2-yl)phenyl)carbamate] | 3.5 | > 10000 | 24 | 5370 | – | – | – | – | – |
| Cc1cc(Cl)ccc1OC(=O)Nc1cccc(-c2cccc(N3CCCC3)n2)c1 [Compound 13c, 4-Chloro-2-methylphenyl (3-(6-(pyrrolidin-1-yl)pyridin-2-yl)phenyl)carbamate] | 24 | 3050 | 39 | 3070 | – | – | – | – | – |
| COC(=O)c1ccccc1NC(=O)Nc1cccc(-c2cccc(N3CCCC3)n2)c1 [Compound 15, Methyl 2-(3-(3-(6-(pyrrolidin-1-yl)pyridin-2-yl)phenyl)ureido)benzoate] | 0.6 | > 10000 | 24 | 8520 | – | – | – | – | – |
| O=C(Nc1cccc(-c2cccc(N3CCCC3)n2)c1)Nc1ccccc1C(=O)O [Compound 16, 2-(3-(3-(6-(Pyrrolidin-1-yl)pyridin-2-yl)phenyl)ureido)benzoic acid] | 35 | > 10000 | 1.5 | > 10000 | – | – | – | – | – |
| O=C(Nc1cccc(-c2cccc(N3CCCC3)n2)c1)Nc1ccccc1CO [Compound 17, 1-(2-(Hydroxymethyl)phenyl)-3-(3-(6-(pyrrolidin-1-yl)pyridin-2-yl)phenyl)urea] | 33 | 1140 | 106 | 672 | – | – | – | – | – |
| O=C(Nc1cccc(-c2cccc(N3CCCC3)n2)c1)Nc1ccc(Cl)cc1I [Compound 19a, 1-(4-Chloro-2-iodophenyl)-3-(3-(6-(pyrrolidin-1-yl)pyridin-2-yl)phenyl)urea] | 53 | 1270 | 118 | 1200 | – | – | – | – | – |
| O=C(Nc1cccc(-c2cccc(N3CCCC3)n2)c1)Nc1ccc(Cl)c(I)c1 [Compound 19b, 1-(4-Chloro-3-iodophenyl)-3-(3-(6-(pyrrolidin-1-yl)pyridin-2-yl)phenyl)urea] | 30 | > 10000 | 120 | 126 | – | – | – | – | – |
| O=C(Nc1cccc(-c2cccc(N3CCCC3)n2)c1)Nc1ccc(Cl)cc1C#CCCOC1CCCCO1 (stereo not shown) [Compound 21a, 1-(4-Chloro-2-(4-((tetrahydro-2H-pyran-2-yl)oxy)but-1-yn-1-yl)phenyl)-3-(3-(6-(pyrrolidin-1-yl)pyridin-2-yl)phenyl)urea] | 9 | > 10000 | 73 | 3400 | – | – | – | – | – |
| O=C(Nc1cccc(-c2cccc(N3CCCC3)n2)c1)Nc1ccc(Cl)c(C#CCCOC2CCCCO2)c1 (stereo not shown) [Compound 21b, 1-(4-Chloro-3-(4-((tetrahydro-2H-pyran-2-yl)oxy)but-1-yn-1-yl)phenyl)-3-(3-(6-(pyrrolidin-1-yl)pyridin-2-yl)phenyl)urea] | 22 | > 10000 | 111 | 208 | – | – | – | – | – |
| O=C(Nc1cccc(-c2cccc(N3CCCC3)n2)c1)Nc1ccc(Cl)cc1C#CCCO [Compound 22a, 1-(4-Chloro-2-(4-hydroxybut-1-yn-1-yl)phenyl)-3-(3-(6-(pyrrolidin-1-yl)pyridin-2-yl)phenyl)urea] | 49 | 6490 | 83 | 4890 | – | – | – | – | – |
| O=C(Nc1cccc(-c2cccc(N3CCCC3)n2)c1)Nc1ccc(Cl)c(C#CCCO)c1 [Compound 22b, 1-(4-Chloro-3-(4-hydroxybut-1-yn-1-yl)phenyl)-3-(3-(6-(pyrrolidin-1-yl)pyridin-2-yl)phenyl)urea] | 152 | 551 | 123 | 149 | – | – | – | – | – |
